Here are results for one substance from US12539320B2, “Composition for improving eyesight” (South China Agricultural University, priority 2022, dated 2026).

What all share (assay type): in vivo, BALB/c mice
Conditions in all cases: 5 μL dripped into conjunctival sac 2 times a day for 15 days, mean (SD in next cell)

For assay [1], the system named is mice with xerophthalmia. Nature of the assay: Measurement of breakup time of tear film (fluorescein sodium, slit lamp) in xerophthalmia mice. On the procedure:
(§1) 1.1 Test animals: 100 SPF-grade 8-week-old healthy BALB/c mice, each weighed 18-22 g, were selected, and anterior segment and fundus of the eyes were not abnormal.
(§2) 1.2. Establishment of animal model: 90 mice were selected to induce a model of xerophthalmia. 5 μL of 2 g/L of a benzalkonium chloride solution was dripped into conjunctival sac of the eyes of 90 mice for 2 times a day and continuously for 15 days. After the modeling was success, the mice were randomly divided into 9 groups with 10 mice in each group.
(§3) 1.3. […] After 15 days, the secretion amount of tear, breakup time of a tear film, and the expression amount of conjunctival epithelial mucin MUC5AC were measured for the mice in each group.
(2) Measurement of breakup time of tear film: 1 μL of 10 g/L of a fluorescein sodium solution was dripped into the conjunctival sac of the mouse, after the mouse blinked, the eyes were artificially kept in a normal opening state, and time for a tear film to generate the 1st black spot (breaking point) was observed and recorded under a cobalt blue light of a slit lamp.

The test system of assay [2] is conjunctival epithelial mucin MUC5AC. Nature of the assay: Expression amount of conjunctival epithelial mucin MUC5AC by Western Blot in xerophthalmia mice. On the procedure: as §1, §2, §3
(3) Measurement of expression amount of conjunctival epithelial mucin MUC5AC: an expression level of the mucin MUC5AC in the conjunctival epithelial cells of the mouse was detected by Western Blot.

The subject of assay [3] is mice with xerophthalmia. Nature of the assay: Measurement of secretion amount of tear (phenol red cotton thread) in benzalkonium chloride-induced xerophthalmia mice. On the procedure:
as §1, §2, §3
(1) Measurement of secretion amount of tear: a phenol red cotton thread was placed in the conjunctival sac of the mouse at about ⅓ outside for 1 min and a length of a red part of the phenol red cotton thread was measured.

As to lutein ester [Comparative example 3], the “Breakup time of tear film” value with mice with xerophthalmia [1] came out at 36.72 s. The “Expression amount of conjunctival epithelial mucin MUC5AC” value in assay [2] worked out at 0.38 ng/mg. In addition, the “Secretion amount of tear” value in the assay with mice with xerophthalmia [3] came out at 6.46 mm.
